For three molecules, controlling value and mortality results are on record in patent US20260101898A1, “SULFONAMIDE COMPOUND AND HARMFUL-ARTHROPOD CONTROLLING COMPOSITION CONTAINING SAME” (SUMITOMO CHEMICAL COMPANY, LIMITED, priority 2022, published 2026).

Holding throughout (assay type): in vivo
Data set [1] relates to cotton aphids (Aphis gossypii). As to the kind of experiment: Test Method 2: soil drench of cucumber seedling, cotton aphids released after 7 days. The settings on record: drench 5 mL/seedling, examined after 6 days. The method, then:
Each test compound is made to a formulation according to a similar method to that described in the Formulation Example 5, and thereto is added water to prepare a diluted solution containing a prescribed concentration of the test compound. Cucumber (Cucumis sativus) seedling (on the developmental stage of the second true leaf) is planted in a container, and the diluted solutions are drenched to the bottom of the seedling at a ratio of 5 mL/seedling. After 7 days, approximately 30 cotton aphids (Aphis gossypii) (all developmental stages of life) are released onto the leaf of the seedling. After 6 days, the number of the surviving insects is examined and the controlling value is calculated by the following equation. [formula] wherein the symbols in the formula represent the following descriptions. • Cb: Number of the test insects in untreated group; • Cai: Number of the surviving insects at the time of the investigation in untreated group; • Tb: Number of the test insects in treated group; • Tai: Number of the surviving insects at the time of the investigation in treated group; Here the “untreated group” represents a group where the similar treatment procedure to that of the treated group except not using the test compound is done.

The subject of data set [2] is common cutworm (Spodoptera litura). As to the kind of experiment: Test Method 3: sprayed cabbage seedling, second-instar larvae of common cutworm. To be noted: 120 h, spray 20 mL/seedling, after 5 days. How it is done:
(§1) Each test compound is made to a formulation according to a similar method to that described in the Formulation Example 1, and thereto is added water containing 0.03 v/v % of Shindain (registered trademark) to prepare a diluted solution containing a prescribed concentration of the test compound.
(§2) Cabbage (Brassicae oleracea) seedling (on the developmental stage of the second to third true leaf) is planted in a container, and the diluted solutions are sprayed to the seedling at a ratio of 20 mL/seedling. Thereafter, the aerial part of the seedling is cut out and then is installed into a container in which a filter paper is placed at the bottom of the container. Five of second-instar larvae of common cutworm (Spodoptera litura) are released into the container. After 5 days, the number of the surviving insects is counted, and the mortality of insects is calculated by the following equation.

Data set [3] shares this test system. The data set is described as follows: Test Method 9: sprayed cabbage seedling, third-instar larvae of common cutworm (formulation per Formulation Example 5). To be noted: 144 h, spray 20 mL/seedling, after 6 days. The method, then: (§3) Each test compound is made to a formulation according to a similar method to that described in the Formulation Example 5, and thereto is added water containing 0.03 v/v % of Shindain (registered trademark) to prepare a diluted solution containing a prescribed concentration of the test compound.
Cabbage (Brassicae oleracea) seedling (on the developmental stage of the third to fourth true leaf) is planted in a container, and the diluted solutions are sprayed to the seedling at a ratio of 20 mL/seedling. Thereafter, ten of third-instar larvae of common cutworm (Spodoptera litura) are released. After 6 days, the number of the surviving insects is counted, and the mortality of insects is calculated by the following equation.

Data set [4] has as its system diamondback moth (Plutella xylostella). As to the kind of experiment: Test Method 4: sprayed cabbage seedling, second-instar larvae of diamondback moth. The settings on record: 120 h, spray 20 mL/seedling, after 5 days. The method, then:
as §1
as §2, with “diamondback moth (Plutella xylostella)” for “common cutworm (Spodoptera litura)”

Data set [5] shares this test system. As to the kind of experiment: Test Method 10: sprayed cabbage seedling, third-instar larvae of diamondback moth (formulation per Formulation Example 5). The settings on record: 120 h, spray 20 mL/seedling, after 5 days. How it is done: as §3
Cabbage (Brassicae oleracea) seedling (on the developmental stage of the third to fourth true leaf) is planted in a container, and the diluted solutions are sprayed to the seedling at a ratio of 20 mL/seedling. Thereafter, ten of third-instar larvae of diamondback moth (Plutella xylostella) are released. After 5 days, the number of the surviving insects is counted, and the mortality of insects is calculated by the following equation.

Data set [6] concerns Western corn rootworm (Diabrotica virgifera virgifera). As to the kind of experiment: Test Method 5: corn seedling dip, second-instar larvae of Western corn rootworm. The settings on record: 120 h, corn seedling immersed 30 seconds, after 5 days. How it is done: Each 1 mg of the test compounds is dissolved in 50 μL of a mixed solution consisting of 5% of polyoxyethylene sorbitan mono-cocoate and 95% of acetone by volume ratio. Thereto is added water containing 0.03% by volume of Shindain (registered trademark) to prepare a diluted solution containing a prescribed concentration of the test compound.
A young seedling of corn (Zea mays) is immersed into the diluted solution for 30 seconds. Thereafter, two seedlings are installed in a plastic petri dish ([…]), and 10 of second-instar larvae of Western corn rootworm (Diabrotica virgifera virgifera) are released into the dish. After 5 days, the number of the dead insects is counted, and the mortality of insects is calculated by the following equation.

For data set [7], the system named is German cockroach (Blattella germanica). As to the kind of experiment: Test Method 6: coated glass vial, German cockroach male adults. The settings on record: 40 mg/m^2 coated vial, 3 days. The method, then: An acetone solution which is adjusted to 800 ppm of each test compound is poured into a 50 mL glass vial, and the test compound is coated uniformly on inner face of the vial so as to 40 mg/m^2 of the test compound treated, and the vial is then dried.
5 German cockroach (Blattella germanica) male adults are released into the treated vial, and the vial is then covered with lid. After the prescribed time, the state of the German cockroach is examined, and the mortality is calculated by the following equation.

Data set [8] deals with housefly (Musca domestica). The data set is described as follows: Test Method 8: coated glass vial, housefly female adults. To be noted: 40 mg/m^2 coated vial, 1 day. How it is done: An acetone solution which is adjusted to 800 ppm of each test compound is poured into a 20 mL glass vial, and the test compound is coated uniformly on inner face of the vial so as to 40 mg/m^2 of the test compound treated, and the vial is then dried.
5 housefly (Musca domestica) female adults are released into the treated vial, and the vial is then covered with lid. After the prescribed time, the state of the housefly is examined, and the mortality is calculated by the following equation.

As to `CN(C)S(=O)(=O)c1c(-n2nc3ccc(C(F)(F)F)cn3c2=O)nc2ccc(Br)cn12` [Present compound 2], the controlling value in data set [1] (250 ppm) and in data set [1] (1000 ppm) was 100% in each case. Further, the mortality at 500 ppm in data set [2] and in data set [4] was at least 80% throughout. For the same molecule, the mortality at 200 ppm in data set [3] and in data set [5] was at least 80% throughout. Moreover, the mortality at 50 ppm in data set [5] is at least 80%.
Take `CNS(=O)(=O)c1c(-c2nc3cc(C(F)(F)F)cnc3[nH]2)nc2ccc(C(F)(F)F)cn12` [Present compound 3]: the mortality at 200 ppm in data set [6] is 100%; in data set [3] it was at least 80%; in data set [5], at least 80%. Moreover, the mortality in data set [7] and in data set [8] was 100% in each case. The mortality at 500 ppm in data set [2] and in data set [4] was at least 80% throughout. For the same molecule, the mortality at 50 ppm in data set [5] is at least 80%.
As to `CN(C)S(=O)(=O)c1cc(Br)cnc1-n1nc2ccc(C(F)(F)F)cn2c1=O` [Present compound 1], in data set [4], the mortality at 500 ppm is at least 80%. For the same molecule, the mortality at 200 ppm in data set [5] is at least 80%.

One may read the mortality as the share of the test organisms that died. Read a low mortality as more survivors.
